From US9434687B2, “Detection of synthetic cannabinoids” (priority 2011, dated 2016)
Read-outs that look alike come from different tables or passages of the source.

Assays:
Type in all cases: binding, sheep
[1] = tested on: IgG fraction of antiserum raised to Immunogen IV
[2] = tested on: IgG fraction of antiserum raised to Immunogen VIII
[3] = tested on: IgG fraction of antiserum raised to Immunogen VII; conditions: Antibody to Immunogen VII; cross-reactants at 100 ng/ml; 1000 ng/ml; standard JWH-015
[4] = Antibody to Immunogen IV, cross-reactants at 100 ng/ml, 1000 ng/ml, standard JWH-018
[5] = Antibody to Immunogen VIII, cross-reactants at 100 ng/ml, 1000 ng/ml, standard JWH-018

Row | Structure (SMILES) | % B/B0 [1, 4] | % B/B0 [2, 5] | % B/B0 [3] | other results
1 | CCCCn1cc(C(=O)c2cccc3ccccc23)c2ccccc21 [JWH-073] | 13.63% | 25.50% | 58.34% | 
2 | CCCCCn1cc(C(=O)c2cccc3ccccc23)c2cc(O)ccc21 [5-OH JWH-018, JWH-018 5-hydroxyindole metabolite] | 78.56% | 87.67% | 85.76% | 
3 | O=C(c1cccc2ccccc12)c1cn(CCCCCF)c2ccccc12 [AM-2201, 1-(5-Fluoropentyl)indol-3-yl (1-naphthyl) methanone] | 6.20% | 16.74% | 55.28% | 
4 | O=C(O)CCCCn1cc(C(=O)c2cccc3ccccc23)c2ccccc21 [JWH-018 N-pentanoic acid metabolite] | 99.89% | 100.31% | 53.02% | 
5 | CCCCCn1cc(C(=O)c2cccc3ccccc23)c2c(O)cccc21 [4-OH JWH-018, JWH-018 4-hydroxyindole metabolite] | 20.42% | 16.72% | 89.96% | 
6 | O=C(c1cccc2ccccc12)c1cn(CCCCCO)c2ccccc12 [JWH-018 N-(5-hydroxypentyl) metabolite] | 78.42% | 57.37% | 53.32% | 
7 | O=C(c1cccc2ccccc12)c1cn(CCN2CCOCC2)c2ccccc12 [JWH-200] | 77.08% | 98.81% | 42.85% | 
8 | CCCCCn1cc(C(=O)c2ccc(Cl)c3ccccc23)c2ccccc21 [JWH-398] | 6.00% | 18.66% | 94.47% | 
9 | CCCCCn1cc(C(=O)c2cccc3ccccc23)c2ccc(O)cc21 [6-OH JWH-018, JWH-018 6-hydroxyindole metabolite] | 51.00% | 89.86% | 68.17% | 
10 | O=C(c1cccc2ccccc12)c1c[nH]c2ccccc12 [N-desalkyl JWH-018, 3-(1-naphthoyl)-1H-Indole] | 95.55% | 90.49% | 80.08% | 
11 | CCCCCn1cc(C(=O)c2cccc3ccccc23)c2ccccc21 [JWH-018] | 6.80% | 17.66% | 67.66% | % B/B0 ([1]; JWH-018 1.25 ng/ml): 87%; % B/B0 ([1]; JWH-018 2.5 ng/ml): 68%; % B/B0 ([1]; JWH-018 5 ng/ml): 42%; % B/B0 ([1]; JWH-018 10 ng/ml): 26%; % B/B0 ([1]; JWH-018 20 ng/ml): 16%; % B/B0 ([1]; JWH-018 40 ng/ml): 10%; % B/B0 ([1]; JWH-018 80 ng/ml): 7%; IC50 ([1]; Table 8 standard curve, standard concentration which produces 50% B/B0): 4.133 ng/mL; % B/B0 ([2]; JWH-018 1 ng/ml): 79%; % B/B0 ([2]; JWH-018 3 ng/ml): 63%; % B/B0 ([2]; JWH-018 5 ng/ml): 51%; % B/B0 ([2]; JWH-018 10 ng/ml): 40%; % B/B0 ([2]; JWH-018 20 ng/ml): 29%; % B/B0 ([2]; JWH-018 40 ng/ml): 22%; % B/B0 ([2]; JWH-018 80 ng/ml): 16%; IC50 ([2]; Table 9 standard curve, standard concentration which produces 50% B/B0): 5.230 ng/mL
